In publication PMC5789847, “Bismuth antimicrobial drugs serve as broad-spectrum metallo-β-lactamase inhibitors” (Nature Communications, 2018):
Several values for one entry are separate records, joined by “and”; a condition that tells them apart may be missing. Equal values may be shown once.

Key:
NDM-1 [1] = target: T1, NDM-1 (Klebsiella pneumoniae, UniProt C7C422); assay type: cell-based; set-up: endogenous in cells; host or cells: E. coli clinical isolate NDM-HK; settings: NDM-HK cultured with 100 µM compound; control 50.1 °C
Description: The cellular thermal shift assay was performed according to a standard method. Clinical isolate of NDM-1-positive E. coli (NDM-HK) was cultured overnight in the absence or presence of 100 µM Bi(III) compounds, i.e., CBS, Bi(NAC)3, Bi(NIT)3. The bacterial pellets were harvested and washed with PBS for 4 times. The cell suspensions were aliquoted into PCR tubes and heat treatment was performed at the designated temperature ranging from 40 °C to 70 °C for 3 min in a 96-well thermal cycler. The tubes were cooled immediately at room temperature for another 3 min after heating and the heating procedures were repeated for three cycles. For the cell lysis, the samples were frozen–thawed for two cycles in liquid nitrogen and thermal cycler set at 25 °C. The samples were vortexed gently after each cycle and were centrifuged at 20,000 × g to obtain the supernatant when the second cycle was finished. All the samples were subjected to western blot analysis for detection and quantification of NDM-1 content as described above.
Target sequence in this assay (C7C422 29-270 limits assumed): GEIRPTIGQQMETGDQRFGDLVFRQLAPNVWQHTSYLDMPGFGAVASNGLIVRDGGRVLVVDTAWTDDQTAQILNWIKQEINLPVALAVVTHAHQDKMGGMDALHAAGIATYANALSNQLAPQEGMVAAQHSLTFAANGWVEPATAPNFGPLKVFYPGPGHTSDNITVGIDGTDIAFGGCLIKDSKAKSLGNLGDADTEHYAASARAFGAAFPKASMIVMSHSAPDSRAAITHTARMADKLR

NDM-HK PCV = assay: Microdilution MIC and checkerboard assay; assay type: cell-based, E. coli
Description: The bacteria employed for cell-based and animal studies are listed in Supplementary Table 1. All the E. coli variants were made as described below. The NDM-HK PCV was screened by 20th-generation serial passages of NDM-HK in antibiotic-free medium.
MIC values were determined by standard broth micro-dilution method (Clinical and Laboratory Standards Institute (CLSI) M100-S20, 2010)[64]. Briefly, bacterial cells were cultured in LB broth overnight at 37 °C at 250 rpm and the OD was measured at 600 nm (OD600). The bacterial density was adjusted to about 1 × 10^6 CFU mL^−1 and checked by CFU counting on agar plates afterwards. Tested antibiotics or Bi(III) compounds were added triplicately into individual wells of flat-bottomed 96-well plates and performed 2-fold serial dilution, followed by addition of prepared bacterial inocula. The plate was then incubated at 37 °C for overnight. […] The MIC was determined as the lowest concentration of a drug that could inhibit the growth of microorganism by both visual reading and OD reading at 600 nm using a microtiter plate reader.
Other procedures were kept strictly the same. […] Synergism was defined when FICI ≤ 0.5, indifference was defined when FICI > 0.5 and < 4, and antagonism was defined when FICI≥4[65]. […] All of the determinations were performed at least in triplicate on different days.

[2] = test system: NDM-K. pneumonia (NDM-1^+); assay: Microdilution MIC/MBC and checkerboard assay; assay type: cell-based, Klebsiella pneumonia
VIM-2 = VIM-2 (Escherichia coli, UniProt Q5U7L7); assay type: biochemical; settings: MER substrate
Description: (§1) Freshly prepared 50 nM of Zn2-NDM-1, Zn2-VIM-2, or Zn2-IMP-4 in 50 mM HEPES/Na pH 7.0, 100 mM NaCl were first incubated with various concentrations of CBS for 1 h at 25 °C, then mixed with equal volume of 0.2 mM MER. The assay was performed in a 1 cm quartz cuvette using the kinetic mode on a Varian Cary50 UV-visible spectrophotometer at 25 °C. The decrease in absorbance at 300 nm due to ring-opening of MER was monitored every second for a duration of 10 min until the reaction was completed. The initial rates were extracted and calculated from each reaction curves for fitting IC50 curves.

NDM-1 [3] = target: T1, NDM-1; assay type: biochemical; settings: MER substrate
Description: as §1
Target sequence in this assay (C7C422 29-270, looked up, species assumed): as the sequence (C7C422 29-270 limits assumed) above

NDM-Rosetta = assay: Microdilution MIC assay; assay type: cell-based, E. coli
Source text: (§2) Other procedures were kept strictly the same.

NDM-BL21 = assay: Microdilution MIC assay; assay type: cell-based, E. coli
Source text: as §2

colloidal bismuth subcitrate [CBS] was tested, and the “NDM-1 melting temperature, treated group” value (NDM-1 [1]) was 48 °C, the “growth inhibition by CBS itself” value (NDM-HK PCV; NDM-1-negative NDM-HK PCV, even at 256 µg mL^-1) was “no or minor growth inhibition” and the “MIC of MER in combination with CBS at 16 µg mL-1” value (“MIC of MER … at 16 µg mL-1” below) (NDM-HK PCV; NDM-HK PCV) was 0.03 mg/L. For the same substance, the “MIC of MER in combination with CBS at 32 µg mL-1” value (from here on “MIC of MER … at 32 µg mL-1”) (NDM-HK PCV; NDM-HK PCV) was 0.03 mg/L, the “MIC of MER in combination with CBS at 256 µg mL-1” value (shortened to “MIC of MER … at 256 µg mL-1”) (NDM-HK PCV; NDM-HK PCV) was 0.03 mg/L and the FICI (NDM-HK PCV; NDM-HK PCV, MER + CBS) was 2. For the same substance, the “MBC of MER in combination with compound at 32 µg mL^-1” value ([2]; NDM-K. pneumonia (NDM-KP)) was 8 mg/L, the “MIC of MER in combination with compound at 32 µg mL^-1” value ([2]; NDM-K. pneumonia (NDM-KP)) was 4 mg/L and the “MBC of Bi(III) compound alone” value ([2]; NDM-KP) was over 256 mg/L. The “MIC of Bi(III) compound alone” value ([2]; NDM-KP) was over 256 mg/L, the FICI ([2]; NDM-KP, MER + compound, 256 µg mL^-1 set as MIC of Bi(III)) was 0.375 and the IC50 (VIM-2; VIM-2 50 nM, 1 h preincubation) was 3.54 µM and 3.55 µM. The “maximal inhibition of MBL activity” value (VIM-2; VIM-2, dose-dependent) was “approximately 90%”, the IC50 (NDM-1 [3]; NDM-1 50 nM, 1 h preincubation) was 2.81 ± 0.34 µM and the “maximal inhibition of MBL activity” value (NDM-1 [3]; NDM-1, dose-dependent) was “approximately 90%”. The “decrease in MIC of MER in combination with CBS” value (NDM-Rosetta; NDM-1 positive E. coli Rosetta(DE3)) was 8 fold, the “MIC of MER in combination with CBS” value (NDM-Rosetta; NDM-1 positive E. coli Rosetta(DE3), CBS concentration not stated) was 4 mg/L and the “MIC of MER … at 16 µg mL-1” value (NDM-Rosetta; NDM-Rosetta) was 8 mg/L. The “MIC of MER … at 32 µg mL-1” value (NDM-Rosetta; NDM-Rosetta) was 4 mg/L, the “MIC of MER … at 256 µg mL-1” value (NDM-Rosetta; NDM-Rosetta) was 4 mg/L and the “decrease in MIC of MER in combination with CBS” value (NDM-BL21; NDM-1 positive E. coli BL21(DE3)) was 8 fold. For the same substance, the “MIC of MER in combination with CBS” value (NDM-BL21; NDM-1 positive E. coli BL21(DE3), CBS concentration not stated) was 2 mg/L, the “MIC of MER … at 16 µg mL-1” value (NDM-BL21; NDM-BL21) was 8 mg/L and the “MIC of MER … at 32 µg mL-1” value (NDM-BL21; NDM-BL21) was 4 mg/L. The “MIC of MER … at 256 µg mL-1” value (NDM-BL21; NDM-BL21) was 2 mg/L.
